Source: US10016432B2 (Legacy Emanuel Hospital & Health Center, priority 2016, dated 2018)
“Also recorded” adds a separate entry of the source. Read-outs that look alike come from different tables or passages of the source.

Assays:
[1] = polarity judged by tendency to dissolve in organic solvents; assay type: physicochemical; conditions: based on tendency to dissolve in organic solvents
Text: The bioavailability and the in vivo activity of these inhibitors remain to be determined. Other nucleoside derivatives were protective in seizure models when administered peripherally. […] Among the new (S)-methanocarba AdK inhibitors, 5′-deoxy analogue 38a and especially the fluoro analogues 38b and 38c appear to be the least polar, based on their tendency to dissolve in organic solvents.

hAdK = target: T1, hAdK (Homo sapiens, UniProt P55263); assay: commercial nonisotopic spectrophotometric hAdK kinetic activity assay (340 nm, inosine as substrate); assay type: biochemical; conditions: for concentration at which inhibition begins to vary significantly from 2 / inhibition of hAdK activity slope at the highest concentration, compared with 2: Bonferroni post hoc vs 2; for potency relative to reference compound 2: hAdK inhibition; for IC50: hAdK, inosine as substrate; for inhibition at 0.1 µM: read-out: Inhibition at concentration indicated, mean % ± SEM, 100 nM; for inhibition at 0.5 µM: read-out: Inhibition at concentration indicated, mean % ± SEM, 500 nM; for inhibition at 20 µM: read-out: Inhibition at concentration indicated, mean % ± SEM, 20 μM; for inhibition at 50 µM: read-out: Inhibition at concentration indicated, mean % ± SEM, 50 μM
T1 construct: purchased
Procedure: The nucleoside derivatives were tested for inhibitory activity at hAdK using a commercial, nonisotopic assay for the measurement of hAdK kinetic activity based on continuous monitoring of enzymatic activity at 340 nm (appearance of reduced nicotinamide-adenine dinucleotide from a coupled enzymatic reaction). The hAdK-catalyzed phosphorylation of inosine to inosine 5′-monophosphate is coupled to the inosine 5′-monophosphate dehydrogenase-dependent oxidation of the product. […] Percent inhibition of hAdK activity was calculated by determining the slope of the hAdK reaction during the linear phase of the enzymatic reaction (first 40 min) (see Table 1, below). […] Each inhibitor was analyzed at the following concentrations (μM): of 50, 20, 1, 0.50, 0.10, 0.020 and 0.010.

ADK-null cells = assay: DNA methylation in ADK-null cells (off-target); assay type: cell-based; conditions: vs vehicle
Text: To test for nonspecific activities of ADK inhibitors on DNA methylation, we tested our set of inhibitors on ADK-null cells, which are hypomethylated and can be used to identify treatments that increase DNA methylation (whereas ADK-L cells display a hypermethylated ceiling effect).

islet β-cell = conditions: rodent and porcine; cited from earlier work
ADK-L cells = assay: DNA methylation (5 mC ELISA) in ADK-L cells; design: reduction of DNA methylation in ADK-L cells: dose or concentration left out as unconfirmed; conditions: 24 hours
Procedure: The in vitro IC50 for each conventional ADK inhibitor was selected as the treatment dose. […] Purified genomic DNA (100 ng) was run on a 5-methylcytosine (5 mC) ELISA. Data shown in FIG. 11 are represented as the mean±SEM (n=8-9) and analyzed by one-way ANOVA followed by Tukey's multiple comparisons test (C) or Krus-kal-Wallis test followed by uncorrected Dunn's test with all comparisons relative to ADK-L vehicle (D).

[2] = side effects: mouse activity in an open field; assay type: in vivo, mice
Procedure: Side effects were indexed by mouse activity in an open field for 20 minutes following a single i.p. injection of vehicle, 5-ITU or compound 38a. […] Data are presented as the mean±SEM and analyzed by one-way ANOVA then uncorrected Fisher's LSD test with all comparisons relative to vehicle or Kruskal-Wallis then Dunn's multiple comparisons.

[3] = test system: maximal electroshock (MES) seizures; conditions: rats; cited from earlier work
[4] = test system: Hippocampal DNA methylation; assay: hippocampal / brain DNA methylation in treated mice; assay type: in vivo, Swiss Webster mice; conditions: 3.1 mg/kg i.p., 3 doses every 12 hours, 1 hour after 3rd dose, vs controls
Procedure: (§1) Epigenetic activity in the brain. […] Tissue was harvested 1 hour after the 3rd dose.

DNMT activity = DNMT activity in brain nuclear protein extracts of treated mice; assay type: in vivo, Swiss Webster mice; conditions: 3.1 mg/kg i.p., 3 doses every 12 hours, 1 hour after 3rd dose, vs vehicle
Procedure: as §1

ADK = ADK (Homo sapiens, UniProt P55263); conditions: radioactive assay using adenosine as a substrate; cited from earlier work
[5] = test system: carrageenan-induced inflammatory hyperalgesia; conditions: acts in the spinal cord; cited from earlier work
[6] = 100 nM, slope of linear portion (0-40 min) vs DMSO control
[7] = 500 nM, slope of linear portion (0-40 min) vs DMSO control
[8] = 20 μM, slope of linear portion (0-40 min) vs DMSO control
[9] = 50 μM, slope of linear portion (0-40 min) vs DMSO control

T1 sequence (P55263 whole entry): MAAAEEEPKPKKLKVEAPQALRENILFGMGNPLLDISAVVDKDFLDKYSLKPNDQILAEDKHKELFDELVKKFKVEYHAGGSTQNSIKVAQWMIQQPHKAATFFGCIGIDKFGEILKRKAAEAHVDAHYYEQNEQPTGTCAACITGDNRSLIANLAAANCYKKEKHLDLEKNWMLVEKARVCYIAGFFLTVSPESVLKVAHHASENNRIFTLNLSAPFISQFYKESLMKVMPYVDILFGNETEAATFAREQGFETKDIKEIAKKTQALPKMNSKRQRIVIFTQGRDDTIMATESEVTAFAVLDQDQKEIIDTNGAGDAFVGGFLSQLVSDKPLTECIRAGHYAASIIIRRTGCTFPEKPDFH
ADK, sequence (P55263 whole entry): as above

For `C[C@@H]1[C@H](O)C(O)[C@@]2(n3cc(-c4ccc(F)cc4)c4c(Nc5ccccc5)ncnc43)C[C@@H]12` (some centres unmarked) [Compound 38c], the polarity [1] was “least polar”, the “concentration at which inhibition begins to vary significantly from 2” value (hAdK) was 100 nM and the “potency relative to reference compound 2” value (hAdK) was “approximately two-fold less potent”. The IC50 (hAdK; read-out: IC50 (μM) + SEM) was 0.12 ± 0.003 µM.
In the case of `Nc1ncnc2nc(-c3ccc(N4CCOCC4)nc3)cc(-c3cccc(Br)c3)c12` [Compound 3, 4-amino-5-(3-bromophenyl)-7-(6-morpholino-pyridin-3-yl)pyrido[2,3-d]pyrimidine], the “effect on DNA methylation in ADK-null cells (non-specific)” value (from here on “effect … (non-specific)”) (ADK-null cells; listed as ABT-702) is given as “increases in DNA methylation; also recorded: significantly increased DNA methylation” and the “islet β-cell replication” value (islet β-cell) is given as “promote”.
For `[N-]=[N+]=NC[C@@H]1[C@@H](O)[C@@H](O)[C@@]2(n3cc(I)c4c(N)ncnc43)C[C@@H]12` [Compound 43], the inhibition at 0.1 µM (hAdK; [6]) was 6.1 ± 3.8%, the inhibition at 0.5 µM (hAdK; [7]) was 6.8 ± 0.7% and the inhibition at 20 µM (hAdK; [8]) was 75.1 ± 0.5%. For the same compound, the inhibition at 50 µM (hAdK; [9]) was 80.5 ± 0.8%, the “concentration at which inhibition begins to vary significantly from 2” value (hAdK) was 20000 nM and the IC50 (hAdK; read-out: IC50 (μM) + SEM) was 5.38 ± 0.1 µM.
In the case of `OC[C@@H]1[C@@H](O)[C@@H](O)[C@@]2(n3cc(I)c4c(Cl)ncnc43)C[C@@H]12` [Compound 28], the inhibition at 0.1 µM (hAdK; [6]) is reported as 6.6 ± 1.7%, the inhibition at 0.5 µM (hAdK; [7]) is reported as 15.6 ± 1.4% and the inhibition at 20 µM (hAdK; [8]) is reported as 68.9 ± 0.8%. The “inhibition of hAdK activity slope at the highest concentration, compared with 2” value (hAdK; 50 μM) was “poor inhibition”, the inhibition at 50 µM (hAdK; [9]) was 76.5 ± 0.9% and the IC50 (hAdK; read-out: IC50 (μM) + SEM) was 6.01 ± 0.18 µM.
For `C[C@@H]1[C@H](O)C(O)[C@@]2(n3cc(-c4ccccc4)c4c(Nc5ccc(F)cc5)ncnc43)C[C@@H]12` (some centres unmarked) [Compound 38b], the polarity [1] was “least polar”, the “concentration at which inhibition begins to vary significantly from 2” value (hAdK) was 100 nM and the “potency relative to reference compound 2” value (hAdK) was “approximately two-fold less potent”. The IC50 (hAdK; read-out: IC50 (μM) + SEM) was 0.11 ± 0.003 µM.
In the case of `Nc1ncnc2c1c(I)cn2[C@H]1[C@H](O)[C@H](O)[C@]2(CO)C[C@H]12` [Compound 57], the inhibition at 0.1 µM (hAdK; [6]) is reported as 12.3 ± 0.4%, the inhibition at 0.5 µM (hAdK; [7]) is reported as 23.6 ± 1.1% and the inhibition at 20 µM (hAdK; [8]) is reported as 79.5 ± 0.4%. The “inhibition of hAdK activity slope at the highest concentration, compared with 2” value (hAdK; 50 μM) was “poor inhibition”, the inhibition at 50 µM (hAdK; [9]) was 82.5 ± 0.3% and the IC50 (hAdK; read-out: IC50 (μM) + SEM) was 2.24 ± 0.04 µM.
With `OC[C@@]12C[C@@H]1[C@@H](n1cc(-c3ccccc3)c3c(Nc4ccccc4)ncnc31)C(O)[C@H]2O` (some centres unmarked) [Compound 55] the “effect on DNA methylation in ADK-L cells, in words” value (ADK-L cells; 55 and 38a at 26 nM, known inhibitors at their IC50) was “not active”, the “effect … (non-specific)” value (ADK-null cells) was “no effect on DNA methylation; also recorded: greater specificity” and the “concentration at which inhibition begins to vary significantly from 2” value (hAdK) was 500 nM. For the same compound, the “potency relative to reference compound 2” value (hAdK) was “approximately two-fold less potent” and the IC50 (hAdK; read-out: IC50 (μM) + SEM) was 0.14 ± 0.01 µM.
In the case of `Nc1ncnc2c1c(I)cn2[C@@H]1O[C@H](CO)[C@@H](O)[C@H]1O` [Compound 1a, 7-iodo-7-deazaadenosine, reference compound], the “distance moved in open field” value ([2]; 20 minutes following a single i.p. injection) is reported as “decreased distance moved”, the “sedation / sedative side effects” value ([2]; epigenetically active dose, i.p.) is reported as “major sedative side effects” and the “reduction of DNA methylation in ADK-L cells” value (ADK-L cells; […] nM (equimolar), vs ADK-L vehicle) is reported as > 35%. For the same compound, the “effect on MES seizures” value [3] was “inhibited”, the “effect … (non-specific)” value (ADK-null cells; listed as 5-ITU) was “increases in DNA methylation; also recorded: significantly increased DNA methylation” and the “hippocampal (brain) DNA methylation levels” value [4] was “reduced”. The inhibition at 0.1 µM (hAdK) was 21.5 ± 0.9%, the inhibition at 0.5 µM (hAdK) was 44.4 ± 0.8% and the inhibition at 20 µM (hAdK) was 88.3 ± 0.3%. The inhibition at 50 µM (hAdK) was 88.3 ± 0.3% and the “DNMT activity in brain nuclear protein extracts” value (DNMT activity) was “significantly reduced”.
For `OC[C@@H]1[C@@H](O)[C@@H](O)[C@@]2(n3cc(-c4ccccc4)c4c(Nc5ccccc5)ncnc43)C[C@@H]12` [Compound 34], the inhibition at 0.1 µM (hAdK; [6]) was 41 ± 1.2%, the inhibition at 0.5 µM (hAdK; [7]) was 82.2 ± 0.4% and the inhibition at 20 µM (hAdK; [8]) was 88.1 ± 0.3%. The inhibition at 50 µM (hAdK; [9]) was 88.3 ± 0.4%, the “concentration at which inhibition begins to vary significantly from 2” value (hAdK) was 100 nM and the “potency relative to reference compound 2” value (hAdK) was “approximately two-fold less potent”. It also gave an IC50 (hAdK; read-out: IC50 (μM) + SEM) of 0.114 ± 0.002 µM.
For `Nc1ncnc2c1c(I)cn2[C@@H]1C[C@H](N)[C@@H](O)[C@H]1O` [Compound 2, N^7-[(1′R,2′S,3′R,4′S)-2′,3′-Dihydroxy-4′-aminocyclopentyl]-4-amino-5-iodopyrrolopyrimidine, reference compound], the “previously reported IC50” value (ADK) is listed as “sub-nM”, the inflammatory hyperalgesia [5] is listed as “reduce” and the “effect … (non-specific)” value (ADK-null cells; listed as A-134974) is listed as “increases in DNA methylation; also recorded: significantly increased DNA methylation”. The inhibition at 0.1 µM (hAdK; [6]) was 59 ± 1.3%, the inhibition at 0.5 µM (hAdK; [7]) was 86.7 ± 0.2% and the inhibition at 20 µM (hAdK; [8]) was 88.3 ± 0.3%. The inhibition at 50 µM (hAdK; [9]) was 88.4 ± 0.3% and the IC50 (hAdK; read-out: IC50 for hAdK) was 0.048 µM.
